Columns and labels:
Format in all cases: in vivo
[1] = test system: Sweet Potato Whitefly (Bemisia tabaci, BEMITA); assay: Bioassay 8: Sweet Potato Whitefly, spray on cotton seedlings at crawler emergence, nymphs counted 7-9 days after treatment; conditions: AI alone 0.1 (10^-5) Wt %
Protocol: where X=No. of live aphids on solvent check plants and Y=No. of live aphids on treated plants. In Table B1 the “Expected % Control” was calculated using the method described in Colby S. R., Weeds, 1967, 15, 20-22. Bioassay 8: Sweet Potato Whitefly (Bemisia tabaci, BEMITA) (“SPW”).
(§1) Stock solutions were prepared with Formula One as well as for each of the active ingredients individually. Test solutions were prepared from the stock solutions. Test solutions were prepared containing Formula One, the individual active ingredients, and mixtures of Formula One with each of the active ingredients. The test solutions for Formula One and the individual active ingredients were prepared by adding 500 μL of stock solution to a 25 mL glass vial, then adding 500 μL of acetone, followed by the addition of 9 mL water with 0.025% Tween®) 20 to create a 0.001% (w/v) solution. The test solutions containing mixtures of Formula One and the individual active ingredients were prepared by adding 500 μL of the active ingredient stock solution to a 25 mL glass vial, followed by 500 μL of the Formula One stock solution, then by the addition of 9 mL water with 0.025% Tween®) 20 to create a test solution containing 0.001% (w/v) Formula One and 0.001% (w/v) of the active ingredient. Each test solution was serially diluted to create desired doses of test solutions (0.001% (w/v), 0.0001% (w/v), 0.00001% (w/v), 0.000001% (w/v), 0.0000001% (w/v), 0.000008% (w/v) and 0.00000001% (w/v)).
(§2) The test solutions were tested against SPW using the following procedure: Cotton seedlings grown in 3-inch pots, pruned so that only one true leaf remained, were used as test substrate. Adult B. tabaci were allowed to colonize the cotton plants and lay eggs for 24 hours after which all adults were removed from the plants using compressed air. Plants were monitored for egg development and, when crawler emergence was underway (>25% emergence based on visual examination using a microscope), the plants were sprayed using the test solutions and methods described above for green peach aphids (GPA). Treated plants were held in a holding room at approximately 25° C. and ambient relative humidity (RH) prior to grading. Evaluation was conducted by counting the number of developed 2-3 instar nymphs per plant under a microscope 7-9 days after treatment. Percent control was measured using Abbott's correction formula (W. S. Abbott, J. Econ. Entomol. 18 (1925), pp. 265-267) as follows:
where X=No. of live nymphs on solvent check plants and Y=No. of live nymphs on treated plants. In Table B2 the “Expected % Control” was calculated using the method described in Colby S. R., Weeds, 1967, 15, 20-22. Bioassay 9: Diamondback Moth (Plutella xylostella, PLUTMA) (DBM).

[2] = test system: Western Tarnished Plant Bug (Lygus hesperus, LYGUHE); assay: Bioassay 4: Western Tarnished Plant Bug, soaked green bean segments, living nymphs 3 days after application
Protocol: where X=No. of live nymphs on solvent check leaf discs and Y=No. of live nymphs on treated leaf discs. In Table B3 the “Expected % Control” was calculated using the method described in Colby S. R., Weeds, 1967, 15, 20-22. Bioassay 4: Western Tarnished Plant Bug (Lygus hesperus, LYGUHE) (“WTPB”).
(§3) Stock solutions were prepared with Formula One as well as for each of the active ingredients individually. Test solutions were prepared from the stock solutions. Test solutions were prepared containing Formula One, the individual active ingredients, and mixtures of Formula One with each of the active ingredients. The test solution for Formula One was prepared by adding 500 μL of the stock solution to a 25 mL glass vial, then adding 500 μL of acetone, followed by the addition of 9 mL water with 0.025% Tween®) 20 to create a 0.04% (w/v) solution. The test solutions of the individual active ingredients were prepared by adding 500 μL of stock solution to a 25 mL glass vial, then adding 500 μL of acetone, followed by the addition of 9 mL water with 0.025% Tween®) 20 to create a 0.005% (w/v) solution. The test solutions containing mixtures of Formula One and the individual active ingredients were prepared by adding 500 μL of the active ingredient stock solution to a 25 mL glass vial, followed by 500 μL of the Formula One stock solution, then by the addition of 9 mL water with 0.025% Tween®) 20 to create a test solution containing 0.04% (w/v) Formula One and 0.005% (w/v) of the active ingredient. Each test solution was serially diluted to create desired doses of test solutions (0.005% (w/v), 0.00125% (w/v), 0.0003125% (w/v), 0.000078% (w/v), and 0.0000195% (w/v)). In test solutions containing mixtures of Formula One and the active ingredients, the active ingredients were diluted as described above, but the Concentration of Formula One was held constant (0.04% (w/v)).
The test solutions were tested against WTPB using the following procedure: Fresh green beans were cut into segments approximately 1.5 inches long. Four bean segments were added to each 25 mL vial containing the test solutions and soaked for approximately 15 minutes. After soaking, a single bean fragment was removed and placed into a single well of a 32-well rearing tray (Frontier Agricultural Sciences™), on top of a round filter paper disc. A reference treatment (solvent check) was treated with the diluent only. Each treatment was replicated four times and the test treatments were held at approximately 26° C. and ambient relative humidity (RH) prior to grading. Bean segments were allowed to air dry for ˜30 minutes. Three WTPB nymphs were added to and contained in each well with a clear perforated adhesive lid. The total number of living WTPB nymphs was recorded 3 days after application. Scoring was based off the total number of living nymphs out of all four replicates. Percent control was measured using Abbott's correction formula (W. S. Abbott, J. Econ. Entomol. 18 (1925), pp. 265-267) as follows:
(§4) X=No. of live nymphs on solvent check and Y=No. of live nymphs on treated bean segments. In Table B4 the “Expected % Control” was calculated using the method described in Colby S. R., Weeds, 1967, 15, 20-22. Bioassay 5: Neotropical Brown Stink Bug (Euschistus heros, EUSCHE) (“BSB”).

[3] = test system: Neotropical Brown Stink Bug (Euschistus heros, EUSCHE); assay: whole plant or invertebrate
Protocol: as §4
as §3, with “The” for “The test solutions of the”, “(0.01%” for “(0.005%”, “0.0025%” for “0.00125%”, “0.000625%” for “0.0003125%”, “0.000156%” for “0.000078%”, “0.000039%” for “0.0000195%”
The test solutions that were tested against BSB were similar to those described above for WTPB. Fresh green beans were cut into segments approximately 1.5 inches long. Four bean segments were added to each test solution and soaked for approximately 15 minutes. After soaking, a single bean fragment was removed and placed into a single well of a 32-well rearing tray (Frontier Agricultural Sciences™), on top of a round filter paper disc. A reference treatment (solvent check) was treated with the diluent only. Each treatment was replicated four times and the test treatments were held at approximately 26° C. and ambient relative humidity (RH) prior to grading. Bean segments were allowed to air dry for ˜30 minutes. Three BSB nymphs were added to and contained in each well with a clear perforated adhesive lid. The total number of living BSB nymphs was recorded 3 days after application. Scoring was based off the total number of living nymphs out of all four replicates. Percent control was measured using Abbott's correction formula (W. S. Abbott, J. Econ. Entomol. 18 (1925), pp. 265-267) as follows:
where X=No. of live nymphs on solvent check and Y=No. of live nymphs on treated bean segments. In Table B5 the “Expected % Control” was calculated using the method described in Colby S. R., Weeds, 1967, 15, 20-22. Bioassay 6: Beet Armyworm (Spodoptera exigua, LAPHEG) (BAW), and Diamondback Moth (Plutella xylostella, PLUTMA) (DBM).

[4] = test system: Sweet Potato Whitefly (Bemisia tabaci, BEMITA); assay: Bioassay 2: Sweet Potato Whitefly, spray on cotton seedlings at crawler emergence, nymphs counted 7-9 days after treatment; conditions: AI alone 1 (10-5) % w/v
Protocol: as §1, with “(w/v),” for “(w/v), 0.000008% (w/v)”
as §2
where X=No. of live nymphs on solvent check plants and Y=No. of live nymphs on treated plants. In Table B2 the “Expected % Control” was calculated using the method described in Colby S. R., Weeds, 1967, 15, 20-22. Bioassay 3: Western Flower Thrips (Frankliniella occidentalis, FRANOC) (“WFT”).

CC1(C)C(C=C(Cl)Cl)C1C(=O)OC(C#N)c1ccc(F)c(Oc2ccccc2)c1 (stereo not drawn) [Cyfluthrin]
Average % Control A1 [1]: 46.90%

CC(c1ccc(C(F)(F)F)nc1)S(C)(=O)=NC#N (stereo not drawn) [Sulfoxaflor]
Average % Control AI ([2]; AI alone 0.0003125 % w/v): 0% | pest or weed control at 0.0025 % strength ([3]; Euschistus heros, 72 h, AI alone 0.0025 % w/v, read-out: Average % Control AI): 58%

Spinetoram
Average % Control AI [4]: 41% | Average % Control AI ([2]; AI alone 0.005 % w/v): 0% | Average % Control AI ([3]; AI alone 0.000625 % w/v): 8%

From patent US20250338846A1, “COMPOSITIONS HAVING PESTICIDAL UTILITY AND PROCESSES RELATED THERETO” (CORTEVA AGRISCIENCE, LLC, priority 2022, published 2025)
